Laboratory results as given in patent publication US20150290105A1, “COMPOSITION COMPRISING SYRINGARESINOL FOR IMPROVING THE SKIN” (AMOREPACIFIC CORPORATION, priority 2011, published 2015).

Tests used:
[1] = tested on: Melanocytes (Mel-Ab cells); experiment: Test of cytotoxicity (crystal violet cell viability) in mouse melanocytes; format: cell-based; conditions: 24 hours
Protocol: Cytotoxicity was tested for syringaresinol in mouse melanocytes as follows.
Melanocytes (Mel-Ab cells) derived from C57BL/6 (treated with Dooley et al.'s method) were cultured under the condition of 37° C. and 5% CO2 in Dulbecco's modified Eagle's medium (DMEM) containing 10% fetal bovine serum, 100 nM 12-O-tetradecanoylphorbol-13-acetate and 1 nM cholera toxin. The cultured Mel-Ab cells were detached with 0.25% trypsin-EDTA, cultured in a 24-well plate to a concentration of 10^5 cells/well and then treated with the syringaresinol prepared in Example. After culturing for 24 hours, the cells were washed with phosphate buffered saline (PBS, pH 7.2) and then stained using 0.1% crystal violet (Sigma) and 10% ethanol (EtOH) for 5 minutes at room temperature. After completely removing free crystal violet, the cells were washed 3 times with PBS (pH 7.2). The stained cells were treated with 95% ethanol (EtOH) for 1 hour at room temperature to extract crystal violet. The absorbance of the extract was measured at 540 nm using the Lambda 25 spectrophotometer (PerkinElmer) and cell viability (%) was calculated according to Equation 1.
Cell viability (%)=(A/B)×100 [Equation 1]
A: absorbance in the presence of syringaresinol
B: absorbance in the absence of syringaresinol

[2] = tested on: Melanocytes (Mel-Ab cells); experiment: Melanin production inhibiting effect in mouse melanocytes; format: cell-based; conditions: Mel-Ab cells, 3 consecutive days; hydroquinone 10 ppm
Protocol: The melanin production inhibiting effect of the syringaresinol obtained in Example was evaluated using mouse melanocytes. First, melanocytes (Mel-Ab cells) derived from C57BL/6 (treated with Dooley et al.'s method) were cultured under the condition of 37° C. and 5% CO2 in Dulbecco's modified Eagle's medium (DMEM) containing 10% fetal bovine serum, 100 nM 12-O-tetradecanoylphorbol-13-acetate and 1 nM cholera toxin. […] After removing the culture medium and washing with PBS, the cells were dissolved with 1 N sodium hydroxide and absorbance was measured at 400 nm. Melanin production inhibiting rate (%) was calculated according to Equation 2 from the measured absorbance. Melanin production inhibiting rate (%)=100−(Absorbance of test substance) /(Absorbance of control substance)×100 [Equation 2]

[3] = tested on: mushroom-derived tyrosinase; experiment: Tyrosinase activity inhibiting effect (dopachrome formation); format: biochemical; conditions: 10 ppm, 37° C. 10 minutes
Protocol: The reaction solution was prepared by adding 500 μL of 0.1 M PBS, 15 μg of L-tyrosine and 50 μL of syringaresinol and then adding distilled water to make the final volume 1500 μL. A solution prepared through the same procedure but with Kojic acid instead of syringaresinol was used as a positive control. The concentration of all the samples used in experiment was set to 10 ppm. After adding 10 units of mushroom-derived tyrosinase to the reaction solution, followed by reaction at 37° C. for 10 minutes, the reaction was stopped by quickly transferring onto ice for 5 minutes. The synthesis rate of dopachrome produced was determined by measuring absorbance at 475 nm and tyrosinase activity inhibiting rate (%) was calculated therefrom.

[4] = Free radical scavenging ability (DPPH); conditions: 37° C. 30 minutes, FIG. 2
Protocol: A radical solution was prepared by dissolving 100 µM diphenylpicrylhydrazyl (DPPH), composed of stable free radicals, in 99% ethanol. A reaction solution was prepared by dissolving syringaresinol in distilled water with different concentrations (pg/mL) and mixing the syringaresinol solution with the radical solution. A reaction solution not containing syringaresinol was used as a negative control and a reaction solution containing vitamin C (Vit C) was used as a positive control. After sufficiently reacting at 37° C. for 30 minutes, radical scavenging ability was evaluated by measuring absorbance at 515 nm. The radical scavenging ability was calculated relative to the negative control group as 100.

[5] = Skin whitening effect when applied to UVB-tanned human skin; format: in vivo; conditions: 1% applied on upper arm after UVB, 10 weeks, 12 male subjects
Protocol: First, opaque tapes having holes of 1.5 cm in diameter were attached on the upper arms of 12 healthy male subjects and UVB of about 1.5-2 times the minimal erythemal dose was irradiated to each subject to induce skin tanning. […] Then, the change was monitored for 10 weeks. The color of the skin was measured with 1-week interval using the CR2002 colorimeter (Minolta, Japan). The change in skin color (ΔL*) between the time when the test substance was applied and the time when the test was completed was calculated according to Equation 3. Skin whitening effect is evaluated by comparing the ΔL* of the part where the test substance was applied with that of the control part. A ΔL* value of about 2 can be interpreted as distinct skin whitening effect and one about 1.5 can be evaluated as positive skin whitening effect.
ΔL*=(L* when test was completed)−(L* when test substance was applied) [Equation 3]

filaggrin = experiment: Filaggrin expression promoting effect in human keratinocytes; format: cell-based; conditions: HaCaT cells, FIG. 5
Protocol: (§1) Human keratinocyte HaCaT cells were cultured in substantially the same manner as in Test Example 10.
(§2) cDNA was synthesized in substantially the same manner as in Test Example 10 and the expression pattern of the filaggrin, involucrin and GAPDH genes was monitored substantially the same manner as in Test Example 10 using the synthesized cDNA and predesigned primers and probes (Applied Biosystems; […]; GAPDH, Hs99999905_ml).

involucrin = experiment: Involucrin expression promoting effect in human keratinocytes; format: cell-based; conditions: HaCaT cells, FIG. 5
Protocol: as §1, §2

TGF-β1 = TGF-β1 production in fibroblasts (ELISA); format: cell-based, human; conditions: HDF cells, 24 hours
Protocol: Human fibroblast HDF cells were cultured in substantially the same manner as in Test Example 10.
The cultured cells were treated with syringaresinol dissolved in DMSO to a concentration of 20, 50 or 100 μM for 24 hours. After 24 hours, the cell culture was recovered.
The quantity of TGF-β1 produced in the recovered cell culture was measured using the Quantikine™ high-sensitivity ELISA kit (R&D Systems, USA) according to the manufacturer's instructions. All the samples required for the measurement of the quantity of TGF-β1 were provided by the kit. First, the recovered cell culture was transferred to a 96-well microplate uniformly coated with TGF-β1 antibody and it was allowed for antigen-antibody reaction to proceed at 37° C. for 1 hour. After removing the cell culture, the wells were washed 3 times with PBS. Then, horseradish peroxidase-conjugated secondary antibody was added to each well and it was allowed for antigen-antibody reaction to proceed for 1 hour. Subsequently, after adding tetramethylbenzidine as a chromogenic substrate to each well, followed by reaction at room temperature for 15 minutes, 1 N sulfuric acid was added to stop the reaction. Then, absorbance was measured at 450 nm using a spectrophotometer. After drawing a standard curve using a standard solution, the TGF-β1 production amount in the cell culture with the test substance added was calculated from the measured absorbance.

## COc1cc(C2OCC3C(c4cc(OC)c(O)c(OC)c4)OCC23)cc(OC)c1O (stereo not shown) [Syringaresinol, syringaresinol]
[1]
  Cell viability (%): 98.6%
[2]
  Melanin production inhibiting rate (%): 85.7%
[3]
  Tyrosinase activity inhibiting rate (%): 90.2%
[4]
  Free radical scavenging ability: scavenge free radicals in a concentration-dependent manner and the effect is superior to that of vitamin C
[5]
  Change in skin brightness (ΔL*): 1.98 ± 0.11
filaggrin
  Expression of filaggrin: increases the expression of filaggrin
involucrin
  Expression of involucrin: increases the expression
TGF-β1; 20 μM
  TGF-β1 production amount: 43.3 ± 1.0
TGF-β1; 50 μM
  TGF-β1 production amount: 87.2 ± 4.2
TGF-β1; 100 μM
  TGF-β1 production amount: 92.1 ± 5.6
